Data reported in ChEMBL document CHEMBL1134239, “Synthesis and antitumor activity of novel paclitaxel-chlorambucil hybrids” (Bioorg Med Chem Lett, 2001).

How the values were obtained:
M109 = experiment: Compound was tested in vivo against M109 using Madison murine lung carcinoma (M109) tumor model; assay type: functional, Mus musculus
HCT-116 = experiment: Compound was tested for cytotoxicity against human colon tumor cell line (HCT116); assay type: functional, cell-based
[1] = target: Tubulin alpha chain (Sus scrofa) (UniProt P02550); experiment: Compound was tested in vitro for inhibition of tubulin polymerization, expressed as ratio to that obtained for paclitaxel; assay type: functional
Chain of Tubulin alpha chain (Sus scrofa) (P02550 whole entry, looked up): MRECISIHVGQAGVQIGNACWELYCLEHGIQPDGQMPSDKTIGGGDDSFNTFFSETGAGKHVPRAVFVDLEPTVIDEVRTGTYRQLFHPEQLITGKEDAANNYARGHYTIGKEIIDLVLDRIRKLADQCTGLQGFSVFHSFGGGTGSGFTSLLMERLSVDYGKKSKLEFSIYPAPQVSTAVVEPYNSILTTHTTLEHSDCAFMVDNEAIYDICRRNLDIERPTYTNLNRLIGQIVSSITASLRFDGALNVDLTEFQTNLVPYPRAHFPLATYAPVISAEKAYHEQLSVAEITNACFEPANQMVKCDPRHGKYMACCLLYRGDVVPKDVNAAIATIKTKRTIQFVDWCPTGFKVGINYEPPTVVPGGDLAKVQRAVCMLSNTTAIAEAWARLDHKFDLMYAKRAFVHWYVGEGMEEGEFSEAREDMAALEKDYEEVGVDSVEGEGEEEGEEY

`CC(=O)O[C@H]1C(=O)[C@@]2(C)C([C@H](OC(=O)c3ccccc3)[C@]3(O)C[C@H](OC(=O)[C@H](O)[C@@H](NC(=O)c4ccccc4)c4ccccc4)C(C)=C1C3(C)C)[C@]1(OC(C)=O)CO[C@@H]1C[C@@H]2OCOC(=O)CCCc1ccc(N(CCCl)CCCl)cc1` (some centres undefined) gave a T/C (M109) of 155%, an IC50 (HCT-116) of 4.6 nM and a Tubulin polymerization [1] of 62.
Compound `CC(=O)O[C@H]1C(=O)[C@@]2(C)C([C@H](OC(=O)c3ccccc3)[C@]3(O)C[C@H](OC(=O)[C@H](O)[C@@H](NC(=O)c4ccccc4)c4ccccc4)C(C)=C1C3(C)C)[C@]1(OC(C)=O)CO[C@@H]1C[C@@H]2OCOC(=O)N(CCOC(=O)CCCc1ccc(N(CCCl)CCCl)cc1)CCOC(=O)CCCc1ccc(N(CCCl)CCCl)cc1` (some centres undefined) has a T/C (M109) of 224%, an IC50 (HCT-116) of 24 nM and a Tubulin polymerization [1] of 70.
Compound `CC(=O)O[C@H]1C(=O)[C@@]2(C)[C@H]([C@H](OC(=O)c3ccccc3)[C@]3(O)C[C@H](OC(=O)[C@H](O)[C@@H](NC(=O)c4ccccc4)c4ccccc4)C(C)=C1C3(C)C)[C@]1(OC(C)=O)CO[C@@H]1C[C@@H]2O` [PACLITAXEL] has a T/C (M109) of 246% and a Tubulin polymerization [1] of 1.
Compound `CC(=O)OCCN(CCOC(C)=O)C(=O)OCO[C@H]1C[C@H]2OC[C@@]2(OC(C)=O)C2[C@H](OC(=O)c3ccccc3)[C@]3(O)C[C@H](OC(=O)[C@H](O)[C@@H](NC(=O)c4ccccc4)c4ccccc4)C(C)=C([C@@H](OC(C)=O)C(=O)[C@@]21C)C3(C)C` (some centres undefined) has a T/C (M109) of 17%, an IC50 (HCT-116) of 3.9 nM and a Tubulin polymerization [1] of 6.5.
Compound `CC(=O)O[C@H]1C(=O)[C@@]2(C)C([C@H](OC(=O)c3ccccc3)[C@]3(O)C[C@H](OC(=O)[C@H](O)[C@@H](NC(=O)c4ccccc4)c4ccccc4)C(C)=C1C3(C)C)[C@]1(OC(C)=O)CO[C@@H]1C[C@@H]2OC(=O)CCCc1ccc(N(CCCl)CCCl)cc1` (some centres undefined) has a T/C (M109) of 127%, an IC50 (HCT-116) of 161 nM and a Tubulin polymerization [1] of 53.
